Earlier results as cited in patent US20100233259A1, “DOSAGE FORM OF ROPINIROLE” (priority 2008, published 2010).

Details: in vivo

SMILES: CCCN(CCC)CCc1cccc2c1CC(=O)N2 [Ropinirole]
- half life: 5 to 6 h
